Source: US9421181B2, “Antihypoxic pharmaceutical composition and application thereof” (CHANGZHOU HI-TECH DISTRICT MULTIPLE DIMENSION INDUSTRY …, priority 2013, dated 2016)
Structures can show the parent of a compound that is named as a salt.

What was measured:
[1] = system: mice model of acute brain hypoxia; test: Mice model of acute brain hypoxia: breathing time after decollation; format: in vivo, Kunming mice; conditions: intragastric once a day 7 days
Description: (§1) Randomly group 70 Kunming male mice into 7 groups: control group, group of L-carnitine 450 mg/kg, group of trimetazidine 9 mg/kg, group of vinpocetine 1.5 mg/kg, group of L-carnitine 450+trimetazidine 9 mg/kg, group of trimetazidine 9+vinpocetine 1.5 mg/kg, and group of L-carnitine 450+trimetazidine 9+vinpocetine 1.5 mg/kg, with each group of 10 mice. Administer […] preparation intragastrically to the mice of experimental groups, and the same volume of normal saline to control group once a day for consecutive 7 days. One hour after the last administration, behead the mice immediately from behind the ear, and stopwatch the breathing time of mice after their decollation.

brain tissue of the mice = test: Content of EAA (Glu, Asp, GABA, Gly) in brain tissue after decollation; format: in vivo, Kunming mice; conditions: intragastric 7 days
Description: as §1
Biochemical indicator test of brain tissue: After death of the mice, immediately get their brain tissues in ice bath, wash them in ice saline to remove the residual blood, and then add ice […] according to the proportion of 1:9. Under the condition of ice bath, high-speed homogenate machine (10 s per times, at intervals of 15 s for 4 times) is used to make the brain tissue into 10% cerebral homogenate. Centrifuge the homogenate under the temperature of 4° C. with the speed of 2000 r/min for 5 min to separate the supernatant, and detect the content of glutamic acid (Glu), aspartic acid (Asp), aminobutyric acid (GABA), and glycine (Gly) in the brain tissue of the mice by amino acid analyzer. After brain injury, the content of Glu, Asp, GABA and Gly, etc. (representatives of the excitatory amino acid (EAA)) in the brain is higher. In particular, one of the important mechanisms that could cause the death of secondary brain injury neurons is the excessive release of Glu. An important reason that leads to delayed neuronal death is the cascade of damage due to calcium overload in the neurons, which is caused by the activation of receptor N-methyl-D-aspartate (NMDA) by Glu. The degree to which the mitochondrial function is damaged determines the death method of neurons [Clemens J A, Stephenson D T, Smalsting E B. Global ischemia activate nuclear. Storke, 1997, 28:1073-1076].

[2] = system: mice under the condition of normobaric hypoxia; test: Hypoxia tolerance and survival time of mice under normobaric hypoxia (sealed bottle with soda lime); format: in vivo; conditions: intragastric once a day 7 days
Description: (§2) Choose 100 male mice with weight of 20±2 g, randomly group them into 10 by weight with each group of 10 mice, and then inject 10 ml/kg preparation to experimental groups, and the same volume of normal saline to control group by tail intravenous injection once a day for consecutive 7 days. One hour after the last injection, put each mouse into a 160 ml wild-mouth bottle, into which 5 g soda lime has been pre-added, and then seal tightly the caps with petroleum jelly. Record survival time of the mice with death as the indicator.
(§3) Choose 80 male mice with weight of 20±2 g, randomly group them into 8 by weight with each group of 10 mice, and then administer 20 ml/kg preparation intragastrically to the mice of experimental groups, and the same volume of normal saline to control group once a day for consecutive 7 days. One hour after the last administration, put each mouse into a 160 ml wild-mouth bottle, into which 5 g soda lime has been pre-added, and then seal tightly the caps with petroleum jelly. Record survival time of the mice with death as the indicator.
as §3, with “40” for “80”, “4” for “8”
as §2, with “Choose 370” for “Choose 100”, “into 37” for “into 10”, “group” for “group by tail intravenous injection”

COc1ccc(CN2CCNCC2)c(OC)c1OC [Trimetazidine, trimetazidine hydrochloride]
Breathing Time after Decollation ([1]; trimetazidine 9 mg/kg): 18.5 ± 2.1 S | Asp content in brain tissue (brain tissue of the mice; trimetazidine 9 mg/kg): 15.21 ± 2.06 µmol/L | GABA content in brain tissue (brain tissue of the mice; trimetazidine 9 mg/kg): 3.44 ± 1.12 µmol/L | Glu content in brain tissue (brain tissue of the mice; trimetazidine 9 mg/kg): 17.02 ± 0.99 µmol/L | Gly content in brain tissue (brain tissue of the mice; trimetazidine 9 mg/kg): 3.49 ± 1.12 µmol/L

CCOC(=O)C1=C[C@]2(CC)CCCN3CCc4c(n1c1ccccc41)[C@@H]32 [Vinpocetine, vinpocetine]
Prolonged Survival Time ([2]; vinpocetine 1.5 mg/kg alone): 13.6% | Survival Time ([2]; vinpocetine 1.5 mg/kg alone): 25.1 ± 4.8 min | Breathing Time after Decollation ([1]; vinpocetine 1.5 mg/kg): 19.5 ± 1.5 S | Asp content in brain tissue (brain tissue of the mice; vinpocetine 1.5 mg/kg): 15.46 ± 2.21 µmol/L | GABA content in brain tissue (brain tissue of the mice; vinpocetine 1.5 mg/kg): 3.15 ± 1.05 µmol/L | Glu content in brain tissue (brain tissue of the mice; vinpocetine 1.5 mg/kg): 19.12 ± 2.01 µmol/L | Gly content in brain tissue (brain tissue of the mice; vinpocetine 1.5 mg/kg): 3.82 ± 1.84 µmol/L

C[N+](C)(C)C[C@H](O)CC(=O)[O-] [L-carnitine]
Prolonged Survival Time ([2]; L-carnitine 450 mg/kg alone): 31.6% | Survival Time ([2]; L-carnitine 450 mg/kg alone): 29.6 ± 3.6 min | Breathing Time after Decollation ([1]; L-carnitine 450 mg/kg): 18.6 ± 1.2 S | Asp content in brain tissue (brain tissue of the mice; L-carnitine 450 mg/kg): 15.68 ± 4.23 µmol/L | GABA content in brain tissue (brain tissue of the mice; L-carnitine 450 mg/kg): 3.71 ± 1.11 µmol/L | Glu content in brain tissue (brain tissue of the mice; L-carnitine 450 mg/kg): 18.45 ± 1.22 µmol/L | Gly content in brain tissue (brain tissue of the mice; L-carnitine 450 mg/kg): 3.54 ± 1.29 µmol/L
